# Results reported in patent US9708314B2, “Heterocyclic amide compound” (NISSAN CHEMICAL INDUSTRIES, LTD., priority 2013, dated 2017).
# Assays:
# Format in all cases: in vivo
# [1] = tested on: Echinochloa crus-galli var. crus-galli; assay: Test Example 3: herbicidal effect by application to foliage (Wagner pot, water depth 0.1-0.5 cm); conditions: Nineteenth Table; application to foliage; application herbicide amount 320 g/ha
# Summary of the method: (§1)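 Plants are raised 14 days from seed in flooded-surface Wagner pots at 25–30 °C, sprayed on stems and leaves with diluted emulsion at a predetermined rate, and rated three weeks on using a 0–5 herbicidal-ratio scale (5 ≥90%).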
# Leptochloa chinensis = assay: as above; conditions: Nineteenth Table; application to foliage; application herbicide amount 320 g/ha
# Summary of the method: as §1
# Cyperus difformis = assay: as above; conditions: Nineteenth Table; application to foliage; application herbicide amount 320 g/ha
# Summary of the method: as §1
# [2] = tested on: directly sowed Oryza sativa; assay: Test Example 3: effect on crop by application to foliage (Wagner pot, water depth 0.1-0.5 cm); conditions: Nineteenth Table; application to foliage; application herbicide amount 320 g/ha
# Summary of the method: as §1
# Scirpus juncoides = assay: Test Example 2: herbicidal activity, application during weed generation in submerged conditions; conditions: Eighteenth Table; application herbicide amount 320 g/ha
# Summary of the method: (§2)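 Post-emergence application under submerged conditions: water-diluted emulsion dosed onto the water surface (g/ha) when weeds reach one- to two-leaf stage. Soil flooded to 4 cm; greenhouse 25–30 °C. Herbicidal ratio graded in six classes, 0 (≤5%) to 5 (≥90%), at three weeks.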
# Monochoria vaginalis = assay: as above; conditions: Eighteenth Table; application herbicide amount 320 g/ha
# Summary of the method: as §2
# [3] = tested on: Echinochloa oryzacola Vasing.; assay: as above; conditions: Eighteenth Table; application herbicide amount 320 g/ha
# Summary of the method: as §2
# [4] = tested on: transplanted Oryza sativa; assay: Test Example 1: effect on crop, application before weed generation in submerged conditions; conditions: Application herbicide amount 320 g/ha; Seventeenth Table
# Summary of the method: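 Rating, on a six-step scale from almost no effect (0) to almost completely withered (5), was made three weeks after pre-emergence treatment. Treatment was surface application to flooded pots at g/ha rates, with plants kept at 25° C. to 30° C.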
SMILES,H (herbicidal effect grade) [1],D (herbicidal effect grade) (Leptochloa chinensis),E (herbicidal effect grade) (Cyperus difformis),b (effect on crop grade) [2],B (Scirpus juncoides) herbicidal ratio grade (Scirpus juncoides),C (Monochoria vaginalis) herbicidal ratio grade (Monochoria vaginalis),A (Echinochloa oryzicola Vasing.) herbicidal ratio grade [3],a: transplanted Oryza sativa (effect on crop grade) [4]
Cn1nnnc1NC(=O)c1ccc(C(F)(F)F)n2c(SCC#N)nnc12 [2-086],5 (Herbicidal ratio of 90% or more (almost completely withered)),5 (Herbicidal ratio of 90% or more (almost completely withered)),4 (Herbicidal ratio of 70% or more and less than 90%),3 (Herbicidal ratio of 40% or more and less than 70%),2 (Herbicidal ratio of 20% or more and less than 40%),1 (Herbicidal ratio of 5% or more and less than 20%),0 (Herbicidal ratio of 5% or less (almost no effect)),0 (Herbicidal ratio of 5% or less (almost no effect))
CCCSc1nnc2c(C(=O)Nc3nnnn3C)ccc(C(F)(F)F)n12 [2-068],5 (Herbicidal ratio of 90% or more (almost completely withered)),5 (Herbicidal ratio of 90% or more (almost completely withered)),5 (Herbicidal ratio of 90% or more (almost completely withered)),5 (Herbicidal ratio of 90% or more (almost completely withered)),5 (Herbicidal ratio of 90% or more (almost completely withered)),4 (Herbicidal ratio of 70% or more and less than 90%),5 (Herbicidal ratio of 90% or more (almost completely withered)),5 (Herbicidal ratio of 90% or more (almost completely withered))
Cn1nnnc1NC(=O)c1ccc(C(F)(F)F)n2cnnc12 [2-001],4 (Herbicidal ratio of 70% or more and less than 90%),4 (Herbicidal ratio of 70% or more and less than 90%),3 (Herbicidal ratio of 40% or more and less than 70%),1 (Herbicidal ratio of 5% or more and less than 20%),2 (Herbicidal ratio of 20% or more and less than 40%),3 (Herbicidal ratio of 40% or more and less than 70%),2 (Herbicidal ratio of 20% or more and less than 40%),0 (Herbicidal ratio of 5% or less (almost no effect))
CCC[S+]([O-])c1nnc2c(C(=O)Nc3nnnn3C)ccc(C(F)(F)F)n12 (stereo not shown) [2-069],5 (Herbicidal ratio of 90% or more (almost completely withered)),5 (Herbicidal ratio of 90% or more (almost completely withered)),5 (Herbicidal ratio of 90% or more (almost completely withered)),5 (Herbicidal ratio of 90% or more (almost completely withered)),5 (Herbicidal ratio of 90% or more (almost completely withered)),5 (Herbicidal ratio of 90% or more (almost completely withered)),5 (Herbicidal ratio of 90% or more (almost completely withered)),5 (Herbicidal ratio of 90% or more (almost completely withered))
Cn1nnnc1NC(=O)c1ccc(C(F)(F)F)n2c(-c3cccs3)nnc12 [2-061],5 (Herbicidal ratio of 90% or more (almost completely withered)),5 (Herbicidal ratio of 90% or more (almost completely withered)),5 (Herbicidal ratio of 90% or more (almost completely withered)),5 (Herbicidal ratio of 90% or more (almost completely withered)),5 (Herbicidal ratio of 90% or more (almost completely withered)),5 (Herbicidal ratio of 90% or more (almost completely withered)),4 (Herbicidal ratio of 70% or more and less than 90%),4 (Herbicidal ratio of 70% or more and less than 90%)
Cc1ccc(-c2nnc3c(C(=O)Nc4nnnn4C)ccc(C(F)(F)F)n23)cc1 [2-042],5 (Herbicidal ratio of 90% or more (almost completely withered)),5 (Herbicidal ratio of 90% or more (almost completely withered)),5 (Herbicidal ratio of 90% or more (almost completely withered)),5 (Herbicidal ratio of 90% or more (almost completely withered)),3 (Herbicidal ratio of 40% or more and less than 70%),4 (Herbicidal ratio of 70% or more and less than 90%),4 (Herbicidal ratio of 70% or more and less than 90%),5 (Herbicidal ratio of 90% or more (almost completely withered))
CC(C)c1nnc2c(C(=O)Nc3nnnn3C)ccc(C(F)(F)C(F)(F)F)n12 [2-049],5 (Herbicidal ratio of 90% or more (almost completely withered)),5 (Herbicidal ratio of 90% or more (almost completely withered)),5 (Herbicidal ratio of 90% or more (almost completely withered)),1 (Herbicidal ratio of 5% or more and less than 20%),5 (Herbicidal ratio of 90% or more (almost completely withered)),4 (Herbicidal ratio of 70% or more and less than 90%),5 (Herbicidal ratio of 90% or more (almost completely withered)),3 (Herbicidal ratio of 40% or more and less than 70%)
COc1cc(OC)cc(-c2nnc3c(C(=O)Nc4nnnn4C)ccc(C(F)(F)F)n23)c1 [2-063],5 (Herbicidal ratio of 90% or more (almost completely withered)),5 (Herbicidal ratio of 90% or more (almost completely withered)),5 (Herbicidal ratio of 90% or more (almost completely withered)),3 (Herbicidal ratio of 40% or more and less than 70%),4 (Herbicidal ratio of 70% or more and less than 90%),5 (Herbicidal ratio of 90% or more (almost completely withered)),5 (Herbicidal ratio of 90% or more (almost completely withered)),4 (Herbicidal ratio of 70% or more and less than 90%)
